Data on 29 compounds can be found in ChEMBL document CHEMBL2203027, “Lanostanoids from fungi: a group of potential anticancer compounds” (J Nat Prod, 2012).

In general, IC50 refers to the midpoint of a concentration-inhibition curve. By GI50 is commonly meant the concentration giving 50% growth inhibition.

The species entered for assay [1] is Mus musculus. The assay can be described thus: Inhibition of TPA-induced tumor progression in mouse skin at 0.2 umol measured at week 20. In kind it is functional.
The test system of assay [2] is DU-145. Put plainly: Cytotoxicity against human DU145 cells. In kind it is functional, cell-based.
Assay [3] can be described thus: Inhibition of rat microsomal 5-alpha reductase assessed as inhibition of conversion of [4-14C]testosterone to [4-14C] dihydrotestosterone after 10 mins.
For assay [4], the system named is HeLa. Put plainly: Cytotoxicity against human HeLa cells. In kind it is functional, cell-based. The note with it: Homo sapiens, HeLa.
A short description of assay [5]: Cytotoxicity against human 95-D cells. In kind it is functional, cell-based.
For assay [6], the system named is L1210. The assay can be described thus: Cytotoxicity against mouse L1210 cells. The class given is functional, cell-based.
The subject of assay [7] is HL-60. Put plainly: Cytotoxicity against human HL60 cells. The class given is functional, cell-based.
Assay [8] has as its target T1, DNA topoisomerase 2-alpha (Homo sapiens, UniProt P11388). Put plainly: Inhibition of topoisomerase 2.
Assay [9] has as its system NUGC-3. The assay can be described thus: Cytotoxicity against human NUGC3 cells. The class given is functional, cell-based.
Assay [10] is described as follows: Growth inhibition of H-Ras transformed rat Rat2 cells. In kind it is functional.
Assay [11] concerns J82. The assay can be described thus: Growth inhibition of H-Ras expressing human J82 cells. The class given is functional.
In assay [12] the test system is SGC-7901. Put plainly: Cytotoxicity against human SGC7901 cells. The class given is functional, cell-based.
For assay [13], the system named is P388. The assay can be described thus: Cytotoxicity against mouse P388 cells. The class given is functional, cell-based.
For assay [14], the system named is Bel-7402. The assay can be described thus: Cytotoxicity against human Bel7402 cells. The class given is functional, cell-based.
Assay [15] is described as follows: Cytotoxicity against mouse LLC cells. In kind it is functional, cell-based. The note with it: Lewis lung carcinoma, read-out: ED50 (the source's name).
Assay [16] can be described thus: Cytotoxicity against mouse Meth-A cells. In kind it is functional, cell-based. The note with it: read-out: ED50 (the source's name).
Assay [17] has as its system Lewis lung carcinoma cell line. Put plainly: Antitumor activity against mouse LLC cells allografted in C57B/6 mouse assessed as tumor growth inhibition at 28 mg/kg relative to control. The note with it: read-out: TGI. The class given is functional.
The subject of assay [18] is Lewis lung carcinoma cell line. The assay can be described thus: Antitumor activity against mouse LLC cells allografted in C57B/6 mouse assessed as inhibition of tumor metastasis at 28 mg/kg relative to control. The class given is functional. The arrangement: scale not given: the % may be the effect or the level left.
Assay [19] has as its target DNA topoisomerase 1 (Homo sapiens, UniProt P11387). The assay can be described thus: Inhibition of topoisomerase 1 in human HuH7 cells. The class given is cell-based, Huh-7.
In assay [20] the target is T1, DNA topoisomerase 2-alpha. The assay can be described thus: Inhibition of topoisomerase 2a in human HuH7 cells. The class given is cell-based, Huh-7.
Assay [21] concerns P388. The assay can be described thus: Antitumor activity against mouse P388 cells allografted in CDF1 mouse assessed as increase in survival rate at 3 mg/kg. In kind it is functional.
Assay [22] relates to P388. The assay can be described thus: Antitumor activity against mouse P388 cells allografted in CDF1 mouse assessed as increase in survival rate at 10 mg/kg. The class given is functional.
For assay [23], the system named is P388. The assay can be described thus: Antiproliferative activity against mouse P388 cells. The class given is functional, cell-based.
In assay [24] the test system is COLO 205. The assay can be described thus: Cytotoxicity against human COLO205 cells. The class given is functional, cell-based.
Assay [25] has as its system A549. Put plainly: Cytotoxicity against human A549 cells. The class given is functional, cell-based.

≈ marks a conversion by molar mass, not a printed value.

T1 sequence (P11388 whole entry): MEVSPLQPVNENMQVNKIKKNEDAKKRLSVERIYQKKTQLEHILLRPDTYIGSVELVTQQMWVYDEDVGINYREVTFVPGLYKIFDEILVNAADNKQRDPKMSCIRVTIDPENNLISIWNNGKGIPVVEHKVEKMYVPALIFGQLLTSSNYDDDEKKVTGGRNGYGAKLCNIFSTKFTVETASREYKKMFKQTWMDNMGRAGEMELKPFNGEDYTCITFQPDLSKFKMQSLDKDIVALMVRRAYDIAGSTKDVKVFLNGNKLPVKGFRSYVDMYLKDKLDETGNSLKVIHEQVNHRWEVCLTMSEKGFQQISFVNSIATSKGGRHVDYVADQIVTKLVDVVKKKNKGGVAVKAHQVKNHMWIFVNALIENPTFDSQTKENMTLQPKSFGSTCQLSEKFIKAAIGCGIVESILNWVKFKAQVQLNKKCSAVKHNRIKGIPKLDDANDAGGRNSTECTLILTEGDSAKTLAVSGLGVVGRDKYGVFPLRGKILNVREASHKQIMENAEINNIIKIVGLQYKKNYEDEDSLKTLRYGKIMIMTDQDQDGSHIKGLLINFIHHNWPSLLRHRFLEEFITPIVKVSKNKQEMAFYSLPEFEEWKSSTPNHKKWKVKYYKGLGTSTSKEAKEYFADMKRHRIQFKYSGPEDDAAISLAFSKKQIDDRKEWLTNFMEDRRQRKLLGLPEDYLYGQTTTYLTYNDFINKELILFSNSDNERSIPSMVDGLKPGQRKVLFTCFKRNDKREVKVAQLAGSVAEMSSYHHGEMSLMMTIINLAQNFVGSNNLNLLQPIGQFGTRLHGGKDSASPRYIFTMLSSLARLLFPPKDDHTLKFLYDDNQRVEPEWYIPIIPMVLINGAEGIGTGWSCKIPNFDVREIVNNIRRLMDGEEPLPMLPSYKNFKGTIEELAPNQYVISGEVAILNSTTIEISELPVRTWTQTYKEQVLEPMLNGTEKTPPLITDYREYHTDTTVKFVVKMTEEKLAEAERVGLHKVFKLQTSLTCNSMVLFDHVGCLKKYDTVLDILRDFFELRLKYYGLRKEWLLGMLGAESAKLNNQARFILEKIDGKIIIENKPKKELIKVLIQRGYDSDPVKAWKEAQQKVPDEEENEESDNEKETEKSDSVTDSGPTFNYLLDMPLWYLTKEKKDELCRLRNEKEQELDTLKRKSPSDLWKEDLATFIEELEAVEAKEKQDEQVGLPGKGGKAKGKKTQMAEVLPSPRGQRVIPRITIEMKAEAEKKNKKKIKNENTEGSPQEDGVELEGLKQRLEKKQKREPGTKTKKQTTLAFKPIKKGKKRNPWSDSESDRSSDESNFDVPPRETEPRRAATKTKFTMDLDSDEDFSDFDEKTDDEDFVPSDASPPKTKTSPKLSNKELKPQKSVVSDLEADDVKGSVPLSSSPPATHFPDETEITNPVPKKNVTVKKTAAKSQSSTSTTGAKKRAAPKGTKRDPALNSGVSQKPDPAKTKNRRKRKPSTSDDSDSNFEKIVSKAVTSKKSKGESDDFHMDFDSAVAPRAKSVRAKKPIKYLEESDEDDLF
Chain of DNA topoisomerase 1 (P11387 whole entry): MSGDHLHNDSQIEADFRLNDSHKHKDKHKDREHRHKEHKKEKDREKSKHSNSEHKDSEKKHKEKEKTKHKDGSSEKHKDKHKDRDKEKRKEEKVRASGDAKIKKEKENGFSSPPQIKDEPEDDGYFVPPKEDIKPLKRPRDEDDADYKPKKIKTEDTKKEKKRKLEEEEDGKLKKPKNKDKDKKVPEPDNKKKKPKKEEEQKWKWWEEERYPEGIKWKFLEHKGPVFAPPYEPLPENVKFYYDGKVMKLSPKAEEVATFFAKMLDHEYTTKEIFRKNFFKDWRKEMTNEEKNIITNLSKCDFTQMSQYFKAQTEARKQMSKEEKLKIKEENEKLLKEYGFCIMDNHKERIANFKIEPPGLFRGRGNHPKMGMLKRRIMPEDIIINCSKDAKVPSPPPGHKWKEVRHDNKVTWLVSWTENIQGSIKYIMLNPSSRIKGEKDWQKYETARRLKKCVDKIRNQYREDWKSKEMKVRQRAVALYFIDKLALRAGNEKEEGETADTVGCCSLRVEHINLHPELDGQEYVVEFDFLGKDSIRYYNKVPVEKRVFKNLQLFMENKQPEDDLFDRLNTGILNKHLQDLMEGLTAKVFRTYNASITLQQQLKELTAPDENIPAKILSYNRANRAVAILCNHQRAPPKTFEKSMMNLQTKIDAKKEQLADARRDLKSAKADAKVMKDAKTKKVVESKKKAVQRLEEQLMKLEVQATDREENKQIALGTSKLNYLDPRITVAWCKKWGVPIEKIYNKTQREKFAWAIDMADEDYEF

`C=C(CC[C@@H](C(=O)O)[C@H]1[C@H](O)C[C@@]2(C)C3=CC[C@H]4C(C)(C)[C@H](OC(C)=O)CC[C@]4(C)C3=CC[C@]12C)C(C)C`: in assay [1], the “inhibition (INH)” value came to 92%.
The compound `C=C(CC[C@@H](C(=O)O)[C@H]1[C@H](O)C[C@@]2(C)C3=CC[C@H]4C(C)(CO)C(=O)CC[C@]4(C)C3=CC[C@]12C)C(C)C` (some centres undefined) displayed an IC50 in assay [2] of 49.7 µM.
`C/C(=C\CC[C@@H](C)[C@H]1C[C@H](O)[C@@]2(C)C3=CC[C@H]4C(C)(C)C(=O)CC[C@]4(C)C3=CC[C@]12C)CO`: the IC50 in [3] was determined as 41.9 µM; in assay [4], 1 µM.
Turning to `CCO[C@@H]1C[C@H]2C(C)(C)[C@H](OC(C)=O)CC[C@]2(C)C2=C1[C@]1(C)[C@@H](OC(C)=O)C[C@H]([C@H](C)C(C/C=C(\C)C(=O)O)OC(C)=O)[C@@]1(C)CC2` (some centres undefined), the IC50 in assay [5] was found to be 46.5 µM; in assay [4] it was 59.1 µM.
`CC(C)=CCC[C@@H](C=O)[C@H]1CC[C@@]2(C)C3=C(CC[C@]12C)[C@@]1(C)CC[C@H](O)C(C)(C)[C@@H]1CC3` came in with an IC50 in assay [6] of 34.4 µM.
For the compound `CC(=O)O[C@H]1CC[C@]2(C)C3=C(CC[C@H]2C1(C)C)[C@]1(C)CC[C@H]([C@@H](CCC=C(C)C)C(=O)O)[C@@]1(C)CC3` [ACETYL TRAMETENOLIC ACID], the IC50 in assay [7] was found to be 25 µM.
With `C=C(CCC(C(=O)O)[C@H]1CC[C@@]2(C)C3=CC[C@H]4C(C)(C)C(=O)CC[C@]4(C)C3=CC[C@]12C)C(C)C` (some centres undefined) [DEHYDROEBURICONIC ACID], the half-maximal inhibitory concentration (IC50) in assay [8] worked out at 4.6 µM; in assay [9] it was 38.4 µM.
With `CC(C)=CCC[C@@H](C(=O)O)[C@H]1CC[C@@]2(C)C3=CC[C@H]4C(C)(C)[C@@H](O)CC[C@]4(C)C3=CC[C@]12C` [DEHYDROTRAMETENOLIC ACID], the GI50 in [10] was 39.2 µM; in assay [11], 26.7 µM.
As for `CC(C)=CCCC(C(=O)O)[C@H]1CC[C@@]2(C)C3=CC[C@H]4C(C)(C)C(=O)CC[C@]4(C)C3=CC[C@]12C` (some centres undefined) [DEHYDROTRAMETENONIC ACID], the IC50 in [8] was found to be 37.5 µM; in assay [9] it was 63.6 µM.
Regarding `COc1cc([C@@H]2c3cc4c(cc3[C@@H](O[C@@H]3O[C@@H]5CO[C@@H](C)O[C@H]5[C@H](O)[C@H]3O)[C@H]3COC(=O)[C@H]23)OCO4)cc(OC)c1O` [ETOPOSIDE], the 50% inhibitory concentration (IC50) in [12], in assay [13], in [4] and in [14] was 0.08 µM each time.
With `C/C(=C/CC[C@@H](C)[C@H]1CC[C@@]2(C)C3=C(CC[C@]12C)[C@@]1(C)CCC(=O)C(C)(C)[C@@H]1CC3=O)C(=O)O` [GANODERIC ACID DM], the IC50 in assay [3] is 10.6 µM; in assay [4], 101 µM.
In the case of `C/C(=C\[C@@H](O)C[C@@H](C)[C@H]1CC(=O)[C@@]2(C)C3=C(C(=O)[C@@H](O)[C@]12C)[C@@]1(C)CC[C@H](O)C(C)(C)[C@@H]1CC3=O)C(=O)O` [GANODERIC ACID THETA], the EC50 in assay [15] and in [16] was 2.3 µg/mL (≈ 4.33 µM) in each case.
Regarding `C/C(=C/CC[C@@H](C)[C@H]1C[C@H](O)[C@@]2(C)C3=CC[C@H]4C(C)(C)C(=O)CC[C@]4(C)C3=CC[C@]12C)C(=O)O` [GANODERIC ACID TR], in [3], the IC50 was found to be 8.5 µM.
For the compound `CC(=O)O[C@@H](C/C=C(\C)C(=O)O)[C@@H](C)[C@H]1C[C@H](OC(C)=O)[C@@]2(C)C3=CC[C@H]4C(C)(C)[C@H](OC(C)=O)CC[C@]4(C)C3=CC[C@]12C` [GANODERIC ACID T], the inhibition in vivo at 28 mg/kg in [17] was 63%. The Activity in [18] came out at 78%.
As for `CC(=O)O[C@H]1C[C@H]([C@H](C)CC/C=C(\C)C(=O)O)[C@@]2(C)CC=C3C(=CC[C@H]4C(C)(C)[C@@H](O)CC[C@]34C)[C@]12C` [GANODERIC ACID X], the half-maximal inhibitory concentration (IC50) was found to be 55 µM in [19] and 25 µM in assay [20].
As for `C[C@H](CC[C@@H](O)C(C)(C)O)[C@H]1CC[C@@]2(C)C3=CC[C@H]4C(C)(C)C(=O)CC[C@]4(C)C3=CC[C@]12C` [GANODERMANONDIOL], the EC50 in assay [15] amounted to 2.3 µg/mL (≈ 5.04 µM); in [16], 3.4 µg/mL (≈ 7.44 µM). This compound had an IC50 in assay [4] of 11 µM.
For the compound `C[C@H](CC[C@H](O)[C@](C)(O)CO)[C@H]1CC[C@@]2(C)C3=CC[C@H]4C(C)(C)C(=O)CC[C@]4(C)C3=CC[C@]12C` [GANODERMANONTRIOL], the EC50 in assay [15] and in [16] was 2.3 µg/mL (≈ 4.87 µM) each time. Also, the concentration for half-maximal inhibition (IC50) in assay [4] amounted to 11 µM.
Take `CC[C@@]1(O)C(=O)OCc2c1cc1n(c2=O)Cc2cc3cc(O)ccc3nc2-1` [HYDROXYCAMPTOTHECIN]: the IC50 worked out at 21.3 µM in assay [5] and 29.5 µM in [4].
In the case of `CC(C)=CC[C@@H](O)[C@@H](C)[C@H]1CC[C@@]2(C)C3=C(CC[C@]12C)[C@@]1(C)CC[C@H](O)C(C)(C)[C@@H]1CC3` [INOTODIOL], the IC50 in assay [7] amounted to 25 µM; in assay [6], 110 µM; in assay [23], 13.9 µM; in assay [24] it was 171 µM. Further, the survival at 3 mg/kg in assay [21] stood at 9.7%. For the same compound, the survival at 10 mg/kg in [22] amounted to 20.8%.
`C/C(=C\CC[C@@H](C)[C@H]1CC[C@@]2(C)C3=C(CC[C@]12C)[C@@]1(C)CC[C@H](O)C(C)(C)[C@@H]1CC3=O)CO` [LUCIDADIOL] displayed an IC50 in assay [4] of 5 µM.
`C[C@H](CCC(=O)O)[C@H]1CC(=O)[C@@]2(C)C3=C(C(=O)C[C@]12C)[C@@]1(C)CCC(=O)C(C)(C)[C@@H]1C[C@@H]3O` [LUCIDENIC ACID A] showed an IC50 in assay [4] of more than 300 µM.
Still for that read-out and setting: the value for `CC(=O)[C@H]1CC(=O)[C@@]2(C)C3=C(C(=O)C[C@]12C)[C@@]1(C)CC[C@H](O)C(C)(C)[C@@H]1C[C@@H]3O` [LUCIDONE A] was 101 µM.
Take `C[C@H](CC[C@H](O)C(C)(C)O)[C@H]1CC[C@@]2(C)C3=C(CC[C@]12C)[C@@]1(C)CCC(=O)C(C)(C)[C@@H]1CC3=O` [LUCIDUMOL A]: the EC50 in assay [15] and in [16] was 2.3 µg/mL (≈ 4.87 µM) throughout. Moreover, the midpoint of inhibition in [4], the IC50, lay at 11 µM.
`COC(=O)C(C)CC(=O)C[C@@H](C)[C@H]1CC(=O)[C@@]2(C)C3=C(C(=O)[C@@H](OC(C)=O)[C@]12C)[C@@]1(C)CC[C@H](O)C(C)(C)[C@@H]1CC3=O` (some centres undefined) [METHYL GANODERATE H]: in assay [4], the midpoint of inhibition, the IC50, lay at 11 µM.
`COC(=O)CC[C@@H](C)[C@H]1CC(=O)[C@@]2(C)C3=C(C(=O)[C@@H](O)[C@]12C)[C@@]1(C)CC[C@H](O)C(C)(C)[C@@H]1C[C@@H]3O` [METHYL LUCIDENATE C] returned an IC50 in [4] of 101 µM.
Compound `C=C(CC[C@@H](C(=O)O)[C@H]1[C@H](O)C[C@@]2(C)C3=CC[C@H]4C(C)(C)C(=O)CC[C@]4(C)C3=CC[C@]12C)C(C)C` [POLYPORENIC ACID B] returned a half-maximal inhibitory concentration (IC50) in [25] of 19.8 µM. Further, in assay [1], the “inhibition (INH)” value is 83%.
With `C=C(C)[C@@H]1CC=C2C(=CC[C@]3(C)[C@@H]([C@@H](CCC=C(C)C)C(=O)O)[C@H](O)C[C@@]23C)[C@@]1(C)CCC(=O)O` [PORICOIC ACID B], the “inhibition (INH)” value in [1] is on record as 68%.
As to `C=C(C)[C@@H]1CCC2=C(CC[C@]3(C)[C@@H]([C@@H](CCC=C(C)C)C(=O)O)[C@H](O)C[C@@]23C)[C@@]1(C)CCC(=O)O` [PORICOIC ACID G], the GI50 in [7] was found to be 0.0393 µM.
The compound `CC(C)=CCC[C@@H](C(=O)O)[C@H]1CC[C@@]2(C)C3=C(CC[C@]12C)[C@@]1(C)CC[C@H](O)C(C)(C)[C@@H]1CC3` [TRAMETENOLIC ACID] registered an IC50 in assay [6] of 62.5 µM.
